# Experimental data: US20230000924A1, “COMPOSITIONS AND METHODS FOR GENERATION OF SINOATRIAL NODE-LIKE CELLS AND THEIR USE IN DRUG DISCOVERY” (Cornell University, priority 2019, published 2023)
# System: GATA5-induced progenitors
# Test: qRT-PCR-based chemical screen in GATA5-induced murine ESC progenitors
# Format: cell-based
# Source text: FIG. 5. Optimization of the protocol for the derivation of SAN-like cells from hPSCs a, Schematic representation of the murine differentiation protocol and qRT-PCR analysis for the expression levels of TBX3, TBX18 and SHOX2 following induction of GATA4, GATA5 or GATA6 at day 4. Fold change was normalized to level using the iGATA6 line; b, Heatmap illustration of the qPCR results of transcription-screen for TBX3, TBX18 and SHOX2; hit compounds (EGF inhibitors) from plates 1 and 3 are circled. c, The activity of tyrphostin AG490 and 2NP on the expression of TBX3, TBX18 and SHOX2; d, The activity of cucurbitacin (STAT3 inhibitor) on expression of MYH6; e, qRT-PCR analysis for TBX3, TBX18 and SHOX2 in S1+RA (left) and S1+cucurbitacin (right); f, The percentage of SHOX2:GFP^+ cells treated with different EGF inhibitors (left) and dose-response curve for effects of Tyrphostin AG490 on the percentage of SHOX2:GFP^+ cells. Fold changes were normalized to DMSO-treated group unless stated otherwise.
# We developed a protocol that maximizes the generation of pluripotent stem cell-derived SAN pacemaker lineages (PSC-SAN). […] We therefore applied GATA5-induced progenitors to an unbiased qRT-PCR-based chemical screen using annotated pathway modulating compounds to identify modulators that further enhance the expression of TTS and specification toward pacemaker lineage. […]
substance,measurement,value
cucurbitacin,expression levels of nodal and atrial structural marker MYH6,enhances the expression levels
